Experimental data: article PMC8240349 (Journal of Traditional and Complementary Medicine, 2021)
Like-named read-outs stand apart in the source and are kept apart here. Marks after values point to notes of the source that are not given here.

Experiments:
[1] = assay type: in vivo, human; conditions: for AUC0-∞ / CL/F / Cmax / K01 / Vz/F / k10 / t1/2a / t1/2z / tlag / tmax / K10: median (range)
[2] = cited from earlier work
[3] = group 1, single 1,000 mg AL, all
[4] = group 1, single 1,000 mg AL, female
[5] = group 1, single 1,000 mg AL, male
[6] = group 2, daily 1,000 mg AL, day 1, all
[7] = group 2, daily 1,000 mg AL, day 1, female
[8] = group 2, daily 1,000 mg AL, day 1, male
[9] = group 2, daily 1,000 mg AL, day 21, all
[10] = group 2, daily 1,000 mg AL, day 21, female
[11] = group 2, daily 1,000 mg AL, day 21, male

C/C=C/C#CC#C/C=C/c1ccco1 [atractylodin]
AUC0-∞ [1, 3]: 105.07 (65.93–168.90) ng.h/ml | CL/F [1, 3]: 7.28 (4.78–15.62) l/kg/h | Cmax [1, 3]: 29.1 (17.1–42.51) ng/ml | K01 [1, 3]: 0.68 (0.43–1.00) /h | Vz/F [1, 3]: 10.18 (6.85–19.53) L/kg | k10 [1, 3]: 0.71 (0.44–1.71) /h | t1/2a [1, 3]: 0.97 (0.41–1.58) h | t1/2z [1, 3]: 0.88 (0.37–1.74) h | tlag [1, 3]: 0.13 (0.0–0.5) h | tmax [1, 3]: 1.41 (0.94–2.3) h | AUC0-∞ [1, 4]: 108.19 (65.93–186.59) ng.h/ml | CL/F [1, 4]: 8.06 (4.80–15.62) l/kg/h | Cmax [1, 4]: 31.04 (19.29–49.21) ng/ml | K01 [1, 4]: 0.75 (0.59–1.48) /h | K10 [1, 4]: 0.76 (0.59–1.16) /h | Vz/F [1, 4]: 11.81 (5.65–19.53) l/kg | t1/2a [1, 4]: 0.92 (0.47–1.19) h | t1/2z [1, 4]: 0.92 (0.47–1.19) h | tlag [1, 4]: 0.0 (0.0–0.25) h | tmax [1, 4]: 1.33 (0.89–1.70) h | AUC0-∞ [1, 5]: 118.85 (74.25–189.98) ng.h/ml | CL/F [1, 5]: 6.35 (3.34–10.33) l/kg/h | Cmax [1, 5]: 31.05 (17.86–51.36) ng/ml | K01 [1, 5]: 0.68 (0.44–0.95) /h | K10 [1, 5]: 0.67 (0.43–0.96) /h | Vz/F [1, 5]: 8.41 (5.14–18.70) l/kg | t1/2a [1, 5]: 1.02 (0.73–1.58) h | t1/2z [1, 5]: 1.02 (0.73–1.57) h | tlag [1, 5]: 0.25 (0–0.5) h | tmax [1, 5]: 1.48 (1.05–2.29) h | AUC0-∞ [1, 6]: 103.7 (16.5–315.4) ng.h/ml | CL/F [1, 6]: 8.11 (2.73–40.75) l/kg/h | Cmax [1, 6]: 32.11 (4.9–117.8) ng/ml | K01 [1, 6]: 0.83 (0.43–22.67) /h | Vz/F [1, 6]: 12.74 (2.687–47.03) L/kg | k10 [1, 6]: 0.71 (0.43–1.25) /h | t1/2a [1, 6]: 0.84 (0.03–1.63) h | t1/2z [1, 6]: 0.84 (0.03–1.63) h | tlag [1, 6]: 0 (0–0.5) h | tmax [1, 6]: 1.18 (0.17–2.34) h | AUC0-∞ [1, 7]: 130.62 (52.04–315.40) ng.h/ml | CL/F [1, 7]: 6.50 (2.73–14.76) l/kg/h | Cmax [1, 7]: 42.26 (8.41–117.80) ng/ml | K01 [1, 7]: 0.96 (0.43–22.67) /h | K10 [1, 7]: 0.63 (0.43–1.19) /h | Vz/F [1, 7]: 10.09 (2.68–33.56) l/kg | t1/2a [1, 7]: 0.73 (0.03–1.63) h | t1/2z [1, 7]: 0.73 (0.03–1.63) h | tmax [1, 7]: 1.11 (0.17–2.34) h | AUC0-∞ [1, 8]: 91.88 (16.5–109.93) ^b ng.h/ml | CL/F [1, 8]: 8.75 (5.8–40.75) l/kg/h | Cmax [1, 8]: 23.77 (4.97–49.75) ^a ng/ml | K01 [1, 8]: 0.78 (0.57–1.89) /h | K10 [1, 8]: 0.72 (0.24–1.25) /h | Vz/F [1, 8]: 15.52 (6.43–47.03) l/kg | t1/2a [1, 8]: 0.89 (0.37–1.21) h | t1/2z [1, 8]: 0.89 (0.37–1.21) h | tlag [1, 8]: 0.0 (0.0–0.5) h | tmax [1, 8]: 1.25 (0.81–1.73) h | AUC0-∞ [1, 9]: 123.18 (49.22–419.61) ng.h/ml | CL/F [1, 9]: 7.10 (1.83–14.67) l/kg/h | Cmax [1, 9]: 31.84 (9.38–97.64) ng/ml | K01 [1, 9]: 0.74 (0.10–1.92) /h | Vz/F [1, 9]: 9.66 (0.47–26.32) L/kg | k10 [1, 9]: 0.73 (0.11–15.31) /h | t1/2a [1, 9]: 0.94 (0.36–6.61) h | t1/2z [1, 9]: 0.94 (0.05–6.49) h | tlag [1, 9]: 0 (0–0.5) h | tmax [1, 9]: 1.32 (0.24–9.44) h | AUC0-∞ [1, 10]: 144.4 (69.1–420.3) ng.h/ml | CL/F [1, 10]: 5.91 (1.83–11.11) l/kg/h | Cmax [1, 10]: 39.49 (11.40–91.24) ng/ml | K01 [1, 10]: 0.72 (0.11–1.92) /h | K10 [1, 10]: 0.74 (0.11–15.31) /h | Vz/F [1, 10]: 8.18 (0.47–25.06) l/kg | t1/2a [1, 10]: 0.97 (0.36–6.61) h | t1/2z [1, 10]: 0.94 (0.05–6.49) h | tlag [1, 10]: 0 (0–0.5) h | tmax [1, 10]: 1.36 (0.24–9.45) h | AUC0-∞ [1, 11]: 87.18 (49.22–292.77) ^c ng.h/ml | CL/F [1, 11]: 8.16 (2.70–14.67) ^d l/kg/h | Cmax [1, 11]: 26.03 (9.39–97.64) ng/ml | K01 [1, 11]: 0.83 (0.52–1.57) /h | K10 [1, 11]: 0.71 (0.42–0.99) /h | Vz/F [1, 11]: 13.32 (3.05–26.32) l/kg | t1/2a [1, 11]: 0.84 (0.44–1.34) h | t1/2z [1, 11]: 0.99 (0.70–1.67) h | tlag [1, 11]: 0 (0.0–0.0) h | tmax [1, 11]: 1.24 (1.0–1.94) h | Cmax by model-dependent analysis compared with model-independent analysis ([1]; in vivo): 60–70% | water solubility [2]: low water solubility
